Measured values from ChEMBL document CHEMBL3886912, “Imidazo[4,5-c]quinolin-2-one compounds and their use in treating Cancer” (2016).

Key:
[1] = target: Serine/threonine-protein kinase ATR (Homo sapiens, UniProt Q13535); test: Cellular Assay: Assay b) HT29 cells (ECACC #85061109) were seeded into 384 well assay plates (Costar #3712) at a density of 6000 cells/well in 40 μl EMEM medium containing 1% L glutamine and 10% FBS and allowed to adhere overnight. The following morning compound of Formula (I) in 100% DMSO was added to assay plates by acoustic dispensing. After 1 h incubation at 37° C. and 5% CO2, 40 nl of 3 mM 4NQO in 100% DMSO was added to all wells by acoustic dispensing, except minimum control wells which were left untreated with 4NQO to generate a null response control. Plates were returned to the incubator for a further 1 h. Then cells were fixed by adding 20 μl of 3.7% formaldehyde in PBS solution and incubating for 20 mins at r.t. Then 20 μl of 0.1% Triton X100 in PBS was added and incubated for 10 minutes at r.t., to permeabalise cells. Then the plates were washed once with 50 μl/well PBS, using a Biotek EL405 plate washer. Phospho-Chk1 Ser 345 antibody (Cell Signalling Technology #2348) was diluted 150 fold in PBS containing 0.05% polysorbate/Tween and 15 μl was added to each well and incubated over night at r.t. The next morning plates were washed three times with 50 μl/well PBS, using a Biotek EL405 plate washer, and then 20 μl of secondary Ab solution, containing 500 fold diluted Alexa Fluor 488 Goat anti-rabbit IgG (Molecular Probes #A-11008) and 0.002 mg/ml Hoeschst dye (Molecular Probes #H-3570), in PBST, was added. After 2 h incubation at r.t., the plates were washed three times with 50 μl/well PBS, using a Biotek EL405 plate washer, and plates were then sealed with black plate seals until read. Plates were read using an ArrayScan VTI instrument, using an XF53 filter with 10× objective. A two laser set up was used to analyse nuclear staining with Hoeschst (405 nm) and secondary antibody staining of pChk1 (488 nm).; assay type: cell-based, HT-29
[2] = target: Serine-protein kinase ATM (Homo sapiens, UniProt Q13315); test: Cellular Assay: Assay a) HT29 cells (ECACC #85061109) were seeded into 384 well assay plates (Costar #3712) at a density of 3500 cells/well in 40 μl EMEM medium containing 1% L glutamine and 10% FBS and allowed to adhere overnight. The following morning compounds of Formula (I) in 100% DMSO were added to assay plates by acoustic dispensing. After 1 h incubation at 37° C. and 5% CO2 plates (up to …; assay type: cell-based, HT-29

Chain of Serine/threonine-protein kinase ATR (Q13535 whole entry): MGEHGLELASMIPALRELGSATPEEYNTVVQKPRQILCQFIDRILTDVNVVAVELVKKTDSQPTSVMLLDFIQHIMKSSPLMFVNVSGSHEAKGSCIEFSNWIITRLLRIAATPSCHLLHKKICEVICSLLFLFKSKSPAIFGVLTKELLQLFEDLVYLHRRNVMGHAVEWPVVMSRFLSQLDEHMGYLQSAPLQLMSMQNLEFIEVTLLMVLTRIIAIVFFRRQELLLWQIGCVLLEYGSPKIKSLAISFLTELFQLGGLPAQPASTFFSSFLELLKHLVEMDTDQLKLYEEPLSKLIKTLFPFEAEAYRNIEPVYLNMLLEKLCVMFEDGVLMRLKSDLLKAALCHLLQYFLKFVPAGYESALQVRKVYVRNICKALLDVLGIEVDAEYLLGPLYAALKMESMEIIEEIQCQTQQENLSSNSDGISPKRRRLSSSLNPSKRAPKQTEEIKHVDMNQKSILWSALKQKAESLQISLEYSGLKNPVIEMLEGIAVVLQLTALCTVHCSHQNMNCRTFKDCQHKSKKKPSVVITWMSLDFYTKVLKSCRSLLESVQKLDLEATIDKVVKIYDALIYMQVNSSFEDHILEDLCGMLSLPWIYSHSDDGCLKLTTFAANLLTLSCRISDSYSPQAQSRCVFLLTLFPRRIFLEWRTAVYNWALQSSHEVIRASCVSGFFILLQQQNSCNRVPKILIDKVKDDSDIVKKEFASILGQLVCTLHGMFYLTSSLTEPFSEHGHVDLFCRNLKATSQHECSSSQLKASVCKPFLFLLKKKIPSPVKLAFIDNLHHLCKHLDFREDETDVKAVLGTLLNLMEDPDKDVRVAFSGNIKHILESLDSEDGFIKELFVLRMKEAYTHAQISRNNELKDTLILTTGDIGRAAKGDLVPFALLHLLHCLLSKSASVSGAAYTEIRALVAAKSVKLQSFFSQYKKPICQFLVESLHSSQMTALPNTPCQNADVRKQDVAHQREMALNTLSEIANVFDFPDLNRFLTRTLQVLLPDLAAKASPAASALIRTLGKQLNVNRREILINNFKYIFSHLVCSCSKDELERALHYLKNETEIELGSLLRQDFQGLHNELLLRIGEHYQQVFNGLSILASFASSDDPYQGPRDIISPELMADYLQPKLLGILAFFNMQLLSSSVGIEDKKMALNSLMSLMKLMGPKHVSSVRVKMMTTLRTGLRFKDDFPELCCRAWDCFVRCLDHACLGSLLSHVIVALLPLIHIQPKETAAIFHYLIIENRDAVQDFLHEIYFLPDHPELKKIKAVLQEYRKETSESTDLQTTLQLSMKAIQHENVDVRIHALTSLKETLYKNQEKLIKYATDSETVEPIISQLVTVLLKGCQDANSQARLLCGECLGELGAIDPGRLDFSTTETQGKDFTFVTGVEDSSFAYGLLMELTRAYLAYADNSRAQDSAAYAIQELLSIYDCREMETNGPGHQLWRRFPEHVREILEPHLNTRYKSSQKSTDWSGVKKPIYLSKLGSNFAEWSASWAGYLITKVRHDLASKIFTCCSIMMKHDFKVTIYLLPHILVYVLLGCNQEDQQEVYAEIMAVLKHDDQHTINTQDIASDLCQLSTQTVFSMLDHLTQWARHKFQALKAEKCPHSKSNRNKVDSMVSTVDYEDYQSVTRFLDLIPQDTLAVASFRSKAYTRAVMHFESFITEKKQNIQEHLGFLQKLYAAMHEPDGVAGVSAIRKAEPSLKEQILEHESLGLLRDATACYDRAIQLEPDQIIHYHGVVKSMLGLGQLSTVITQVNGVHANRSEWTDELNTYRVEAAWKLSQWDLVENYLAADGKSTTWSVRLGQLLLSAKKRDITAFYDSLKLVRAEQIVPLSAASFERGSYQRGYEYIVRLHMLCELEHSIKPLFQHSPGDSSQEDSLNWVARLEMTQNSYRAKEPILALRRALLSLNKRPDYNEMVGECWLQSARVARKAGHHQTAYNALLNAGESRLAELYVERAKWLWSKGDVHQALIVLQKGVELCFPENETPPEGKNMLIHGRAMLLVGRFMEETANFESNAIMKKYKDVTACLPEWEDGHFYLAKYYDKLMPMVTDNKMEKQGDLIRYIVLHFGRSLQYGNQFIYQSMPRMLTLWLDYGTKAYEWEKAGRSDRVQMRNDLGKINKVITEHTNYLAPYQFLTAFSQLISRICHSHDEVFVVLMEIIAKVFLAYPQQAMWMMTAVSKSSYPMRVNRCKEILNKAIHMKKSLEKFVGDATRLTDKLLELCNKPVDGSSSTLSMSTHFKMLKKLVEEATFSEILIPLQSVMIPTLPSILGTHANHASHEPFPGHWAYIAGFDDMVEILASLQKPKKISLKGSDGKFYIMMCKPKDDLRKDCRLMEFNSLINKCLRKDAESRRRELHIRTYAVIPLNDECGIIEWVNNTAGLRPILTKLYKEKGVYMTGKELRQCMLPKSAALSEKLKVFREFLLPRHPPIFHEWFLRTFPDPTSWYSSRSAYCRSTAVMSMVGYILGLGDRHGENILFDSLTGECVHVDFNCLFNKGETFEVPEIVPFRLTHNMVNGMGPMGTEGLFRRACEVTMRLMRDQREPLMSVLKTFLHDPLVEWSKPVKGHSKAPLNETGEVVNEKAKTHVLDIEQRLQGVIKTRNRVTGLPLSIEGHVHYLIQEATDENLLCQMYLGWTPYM

IC50 [1] [µM] | IC50 [2] [nM] | Compound
> 29.6 | 1.14 | CN(C)CCCOc1ccc(-c2cc3c(cc2F)ncc2c3n([C@H]3CCCOC3)c(=O)n2C)cn1
> 30 | 1.46 | CN(C)CCCOc1ccc(-c2ccc3ncc4c(c3c2)n(C2COC2)c(=O)n4C)cn1
> 30 | 0.24 | CN(C)CCCOc1ccc(-c2ccc3ncc4c(c3c2)n([C@H]2C[C@@H](O)C2)c(=O)n4C)cn1
> 30 | 1 | CN(C)CCCOc1ccc(-c2cc3c(cc2F)ncc2c3n([C@@H]3CCCOC3)c(=O)n2C)cn1
